Earlier results as cited in patent US7750039B2, “Indoles are cannabinoid receptor ligands” (priority 2004, dated 2010).

Tests used:
animal models of pain = conditions: acute thermal pain, persistent pain, inflammatory pain, neuropathic pain
[1] = test system: CB1 receptor-mediated CNS side effects; conditions: at fully efficacious doses
rodent models of pain = conditions: neuropathic, incisional, chronic and acute inflammatory pain
[2] = test system: rat formalin model of persistent pain
microglial = conditions: in vitro; blocked by SR144528
[3] = test system: apolipoprotein E knockout mice; conditions: low doses, inhibited by SR144528
[4] = test system: CB2 receptor knockout mice
[5] = test system: CB1 receptor knockout mice
[6] = test system: ovariectomy-induced bone loss in mice; conditions: model for post-menopausal osteoporosis

For `CN1CCCCC1Cn1cc(C(=O)c2cc([N+](=O)[O-])ccc2I)c2ccccc21` (centres unmarked) [AM-1241], the analgesic efficacy (animal models of pain) is given as “robust analgesic efficacy” and the “CB1 receptor-mediated CNS side effects” value [1] is given as “devoid of typical CB1 receptor-mediated CNS side effects”.
In the case of `COc1ccc2c(c1)c(CCN1CCOCC1)c(C)n2C(=O)c1cccc(Cl)c1Cl` [GW405833], the “CB1 receptor-mediated CNS side effects” value [1] is given as “devoid of typical CB1 receptor-mediated CNS side effects” and the “efficacy in pain models” value (rodent models of pain) is given as “efficacious”.
In the case of `CCCCCCC(C)(C)c1cc(OC)c([C@@H]2C=C(CO)[C@@H]3C[C@H]2C3(C)C)c(OC)c1` [HU-308], the antinociceptive response [2] is given as “elicits an antinociceptive response”.
In the case of `CCCC(C)(C)c1ccc2c(c1)OC(C)(C)[C@@H]1CC=C(C)C[C@@H]21` [JWH-133], the “β-amyloid-induced microglial activation and neurotoxicity” value (microglial) is listed as “abrogated”.
For (−)-Δ^9-Tetrahydrocannabinol [Δ^9-THC], the “progression of atherosclerotic lesions” value [3] is listed as “slowed the progression of atherosclerotic lesions”, the immunosuppressive effects [4] is listed as “absent” and the analgesic efficacy [5] is listed as “retains some analgesic efficacy”.
For SR144528, the osteoclast activity (osteoclast) is given as “inhibit osteoclast activity” and the ovariectomy-induced bone loss [6] is given as “reverse ovariectomy-induced bone loss”.
